The numbers were not newly measured in PMC10046460, “Phase I Trial of [^99mTc]Tc-maSSS-PEG2-RM26, a Bombesin Analogue Antagonistic to Gastrin-Releasing Peptide Receptors (GRPRs), for SPECT Imaging of GRPR Expression in Malignant Tumors” (Cancers, 2023), which cites them from elsewhere.

For data set [1], the system named is prostate-specific membrane antigen (PSMA). The conditions noted are these: PCa patients; cited from earlier work. On the procedure: Prostate and breast cancers are the most common sex-related malignancies, with an increasing incidence in many countries over the past 30 years. Accurate diagnosis and staging of the diseases are important for the prognosis and determination of treatment tactics for these pathologies. […] Many derivatives of this pseudo-peptide were tested clin ...

For data set [2] the following is noted: in vivo; cited from earlier work. An excerpt: The biodistribution of [^99mTc]Tc-maSSS-PEG2-RM26 was characterized by the rapid whole body elimination and blood clearance of unbound tracers (Figure 4). This decreases the background caused by the blood-borne activity and creates preconditions for high-contrast imaging. The clinical trial confirmed the major feature of the tracer found in the preclinical studies, a substantial degree of hepatobiliary excretion. The hepatobiliary excretion of [^99mTc]Tc-maSSS-PEG2-RM26 was the highest among other GRPR antagonists tested in clinics and was similar to the excretion of [^99mTc]Tc-RP527, a ...

For `O=C(O)CC[C@H](NC(=O)N[C@@H](CCCCNC(=O)c1ccc([18F])nc1)C(=O)O)C(=O)O` [^18F-DCFPyL], the “sensitivity in the detection of LN metastases” value in data set [1] is 40%. Regarding `O=C([O-])CN(CCN(CC(=O)[O-])Cc1cc(CCC(=O)NCCCCCC(=O)NCCCC[C@H](NC(=O)N[C@@H](CCC(=O)O)C(=O)O)C(=O)O)ccc1[O-])Cc1cc(CCC(=O)O)ccc1[O-].[68Ga+3].[OH3+]` [^68Ga-PSMA], the “sensitivity in the detection of LN metastases” value in data set [1] was 61%. With “D-Phe-Gln-Trp-Ala-Val-Sar-His-Sta-Leu-NHEt [[^99mTc]Tc-DB15, ^99mTc-labeled BN antagonist for SPECT, tested in two patients]”, in data set [2], the route of excretion result was “Predominantly renal excretion”.
